The record followed here is ChEMBL document CHEMBL5034015, “Structure-Based Optimization of 3-Phenyl-N-(2-(3-phenylureido)ethyl)thiophene-2-sulfonamide Derivatives as Selective Mcl-1 Inhibitors” (J Med Chem, 2021).

Activity calls are given as the source filed them.

Experiment [1] has as its system HL-60. As to the kind of experiment: cells. Conditions: Homo sapiens, HL-60, 48 h.
Description: Cytotoxicity against human HL-60 cells assessed as inhibition of cell growth incubated for 48 hrs by CCK8 assay
For experiment [2], the target named is Bcl-2-like protein 1 (Homo sapiens, UniProt Q07817). The experiment is described as follows: Binding affinity to full length human Bcl-xl expressed in Escherichia coli BL21 (DE3) at up to 100 uM preincubated for 30 mins followed by 5-FAM-QEDIIIINIARHLAQVGDSMD-RSIPPG tracer addition and measured after 20 mins by fluorescence polarization assay. Conditions: dose microM <=100, time 50.0 min. (Fluorescence polarisation rises when a labelled molecule tumbles more slowly, as on binding a larger partner.)
Bcl-2-like protein 1, sequence (Q07817 whole entry): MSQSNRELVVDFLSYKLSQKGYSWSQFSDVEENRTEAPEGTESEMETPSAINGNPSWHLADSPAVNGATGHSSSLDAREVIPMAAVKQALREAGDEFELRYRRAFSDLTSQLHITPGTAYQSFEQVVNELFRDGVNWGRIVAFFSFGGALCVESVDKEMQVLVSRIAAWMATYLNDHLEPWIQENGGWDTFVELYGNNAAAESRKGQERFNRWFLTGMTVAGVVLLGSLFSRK

Experiment [3] has as its target Induced myeloid leukemia cell differentiation protein Mcl-1 (Homo sapiens, UniProt Q07820). As to the kind of experiment: Binding affinity to full length human MCL1 expressed in Escherichia coli BL21 (DE3) at up to 100 uM preincubated for 30 mins followed by 5-FAM-QEDIIIINIARHLAQVGDSMD-RSIPPG tracer addition and measured after 20 mins by fluorescence polarization assay. Conditions: dose microM <=100, time 50.0 min.

The subject of experiment [4] is HeLa. The experiment is described as follows: cells. Particulars: Homo sapiens, 48 h.
Description: Cytotoxicity against human HeLa cells assessed as inhibition of cell growth incubated for 48 hrs by CCK8 assay
The target of experiment [5] is Apoptosis regulator Bcl-2 (Homo sapiens, UniProt P10415). The experiment is described as follows: Binding affinity to full length human Bcl-2 expressed in Escherichia coli BL21 (DE3) at up to 100 uM preincubated for 30 mins followed by 5-FAM-QEDIIIINIARHLAQVGDSMD-RSIPPG tracer addition and measured after 20 mins by fluorescence polarization assay. Conditions: dose microM <=100, time 50.0 min.
Apoptosis regulator Bcl-2, sequence (P10415 whole entry): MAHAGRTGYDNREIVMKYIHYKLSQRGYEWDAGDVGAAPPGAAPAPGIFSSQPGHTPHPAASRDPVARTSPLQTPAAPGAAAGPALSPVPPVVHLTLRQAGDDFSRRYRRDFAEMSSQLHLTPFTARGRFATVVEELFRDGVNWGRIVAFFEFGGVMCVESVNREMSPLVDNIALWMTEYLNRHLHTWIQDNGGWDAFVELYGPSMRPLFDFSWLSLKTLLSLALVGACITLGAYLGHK

Experiment [6] concerns HEK-293T. The experiment is described as follows: Cytotoxicity against HEK293T cells assessed as reduction in cell viability incubated for 48 hrs by CCK8 assay. Conditions: Homo sapiens. For orientation: Formazan colour is commonly taken as a measure of viable cells.
Experiment [7] concerns RS4-11. As to the kind of experiment: cells. Conditions: Homo sapiens, RS4-11, 48 h.
Description: Cytotoxicity against human RS4-11 cells assessed as inhibition of cell growth incubated for 48 hrs by CCK8 assay

Induced myeloid leukemia cell differentiation protein Mcl-1, sequence (Q07820 whole entry): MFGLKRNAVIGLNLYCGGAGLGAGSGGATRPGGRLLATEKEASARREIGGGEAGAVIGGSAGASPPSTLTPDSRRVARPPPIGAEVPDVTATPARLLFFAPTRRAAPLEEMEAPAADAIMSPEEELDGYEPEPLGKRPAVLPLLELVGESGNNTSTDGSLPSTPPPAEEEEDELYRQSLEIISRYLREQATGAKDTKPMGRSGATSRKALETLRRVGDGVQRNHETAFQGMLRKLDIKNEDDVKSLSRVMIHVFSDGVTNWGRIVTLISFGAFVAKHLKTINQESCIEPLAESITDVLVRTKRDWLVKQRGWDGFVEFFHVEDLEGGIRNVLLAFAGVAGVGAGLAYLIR

What is called IC50 is the concentration at which inhibition is half-maximal. For the compound `O=[N+]([O-])c1ccc(Oc2ccccc2-c2ccc(S(=O)(=O)NCCNC(=S)Nc3cc(C(F)(F)F)cc(C(F)(F)F)c3)s2)cc1`, the IC50 in experiment [1] was 7.2 µM; in experiment [4] it was 9.9 µM; in experiment [6], 6 µM; in experiment [7], 6.3 µM. Further, the result in experiment [2], in experiment [3] and in experiment [5] was inactive.
For the compound `O=C(NCCNS(=O)(=O)c1ccc(-c2ccccc2Oc2ccc([N+](=O)[O-])c([N+](=O)[O-])c2)s1)Nc1cc(Cl)cc(Cl)c1`, the IC50 in experiment [1] is 2.3 µM; in experiment [4], > 20 µM; in experiment [6] it was > 20 µM; in experiment [7], 2.1 µM. Further, the outcome in experiment [2], in experiment [3] and in experiment [5] was inactive.
Regarding `Cc1cc(C)cc(NC(=O)NCCNS(=O)(=O)c2ccc(-c3ccccc3Oc3ccc([N+](=O)[O-])c([N+](=O)[O-])c3)s2)c1`, the 50% inhibitory concentration (IC50) is 9.1 µM in experiment [1], 12 µM in experiment [4], > 50 µM in experiment [6] and 3.6 µM in experiment [7]. Also, the outcome in experiment [2], in experiment [3] and in experiment [5] was inactive.
Regarding `O=S(=O)(NCCNC(=S)Nc1cc(C(F)(F)F)cc(C(F)(F)F)c1)c1ccc(-c2ccccc2OCc2ccccc2)s1`, the IC50 in experiment [1] was 2.1 µM; in experiment [4], 4.7 µM; in experiment [6], 8.5 µM; in experiment [7] it was > 50 µM. The result in experiment [2], in experiment [3] and in experiment [5] was inactive.
For `O=S(=O)(NCCNC(=S)Nc1cc(C(F)(F)F)cc(C(F)(F)F)c1)c1ccc(-c2ccccc2O[C@H]2CC[C@@H](O)CC2)s1`, the IC50 in experiment [1] was 2.6 µM; in experiment [4], 10.9 µM; in experiment [6] it was > 20 µM; in experiment [7], 6.3 µM. Also, the result in experiment [2], in experiment [3] and in experiment [5] was inactive.
For the compound `O=C(NCCNS(=O)(=O)c1ccc(-c2ccccc2OCc2cccc(O)c2)s1)Nc1cc(C(F)(F)F)cc(C(F)(F)F)c1`, the IC50 in experiment [1] was 4 µM; in experiment [4], 17.3 µM; in experiment [6] it was > 20 µM; in experiment [7] it was 3 µM. In addition, the outcome in experiment [2], in experiment [3] and in experiment [5] was inactive.
In the case of `O=C(NCCNS(=O)(=O)c1ccc(-c2ccccc2O[C@H]2CC[C@H](O)CC2)s1)Nc1cc(Cl)cc(Cl)c1`, the half-maximal inhibitory concentration (IC50) in experiment [1] was > 20 µM; in experiment [4], > 20 µM; in experiment [6], > 50 µM; in experiment [7] it was 14.1 µM. Besides, the outcome in experiment [2], in experiment [3] and in experiment [5] was inactive.
For `COc1ccc(Oc2ccc(C(C)C)cc2-c2ccsc2S(=O)(=O)NCCNC(=O)Nc2cc(C(F)(F)F)cc(C(F)(F)F)c2)cc1OC`, the IC50 in experiment [1] was 7.4 µM; in experiment [4], 11.6 µM; in experiment [6] it was 12.1 µM; in experiment [7] it was 11.7 µM. Besides, the result in experiment [2], in experiment [3] and in experiment [5] was inactive.
As for `COc1cccc(NC(=O)NCCNS(=O)(=O)c2sccc2-c2ccc(C)cc2Oc2ccc(O)c(O)c2)c1`, the IC50 in experiment [1] was 3.6 µM; in experiment [4] it was > 20 µM; in experiment [6] it was > 20 µM; in experiment [7] it was 7.5 µM. Further, the result in experiment [2], in experiment [3] and in experiment [5] was inactive.
Take `O=C(NCCNS(=O)(=O)c1ccc(-c2ccccc2Oc2ccc([N+](=O)[O-])c([N+](=O)[O-])c2)s1)Nc1cc(C(F)(F)F)cc(C(F)(F)F)c1`: the IC50 was 1.9 µM in experiment [1], > 50 µM in experiment [4], > 50 µM in experiment [6] and 2.4 µM in experiment [7]. Further, the outcome in experiment [2], in experiment [3] and in experiment [5] was inactive.
With `O=C(NCCNS(=O)(=O)c1ccc(-c2ccccc2Oc2ccc([N+](=O)[O-])c([N+](=O)[O-])c2)s1)Nc1ccc([N+](=O)[O-])cc1`, the IC50 was 0.34 µM in experiment [1], > 20 µM in experiment [4], 16.6 µM in experiment [6] and 3 µM in experiment [7]. Also, the result in experiment [2], in experiment [3] and in experiment [5] was inactive.
As to `O=S(=O)(NCCNC(=S)Nc1cccc(Cl)c1)c1ccc(-c2ccccc2OCc2ccccc2)s1`, the half-inhibitory concentration (IC50) is > 50 µM in experiment [1], 8.4 µM in experiment [4], 10.2 µM in experiment [6] and > 50 µM in experiment [7]. The result in experiment [2], in experiment [3] and in experiment [5] was inactive.
Consider `COc1ccc(NC(=O)NCCNS(=O)(=O)c2ccc(-c3ccccc3OCc3cccc(O)c3)s2)cc1`, for which the 50% inhibitory concentration (IC50) was > 20 µM in experiment [1], > 20 µM in experiment [4], > 20 µM in experiment [6] and 9.4 µM in experiment [7]. In addition, the result in experiment [2], in experiment [3] and in experiment [5] was inactive.
For `O=[N+]([O-])c1ccc(NC(=S)NCCNS(=O)(=O)c2ccc(-c3ccccc3O[C@H]3CC[C@@H](O)CC3)s2)cc1`, the IC50 in experiment [1] was > 50 µM; in experiment [4], > 20 µM; in experiment [6], 20 µM; in experiment [7], 9.4 µM. Also, the outcome in experiment [2], in experiment [3] and in experiment [5] was inactive.
For the compound `COc1ccc(NC(=S)NCCNS(=O)(=O)c2sccc2-c2ccc(C)cc2Oc2ccc(O)c(O)c2)cc1`, the half-maximal inhibitory concentration (IC50) in experiment [1] was 4.1 µM; in experiment [4], > 20 µM; in experiment [6], > 20 µM; in experiment [7], 8.3 µM. The result in experiment [2], in experiment [3] and in experiment [5] was inactive.
Regarding `Cc1cc(C)cc(NC(=O)NCCNS(=O)(=O)c2ccc(-c3ccccc3OCc3cccc(O)c3)s2)c1`, the IC50 in experiment [1] was > 20 µM; in experiment [4] it was > 20 µM; in experiment [6], > 20 µM; in experiment [7], 5.8 µM. Besides, the result in experiment [2], in experiment [3] and in experiment [5] was inactive.
Take `COc1ccc(Oc2ccc(C(C)C)cc2-c2ccsc2S(=O)(=O)NCCNC(=S)Nc2ccc([N+](=O)[O-])cc2)cc1OC`: the IC50 was found to be 11.2 µM in experiment [1], 11.9 µM in experiment [4], 11.4 µM in experiment [6] and 5.8 µM in experiment [7]. Moreover, the outcome in experiment [2], in experiment [3] and in experiment [5] was inactive.
On to `COc1cccc(NC(=O)NCCNS(=O)(=O)c2ccc(-c3ccccc3Oc3ccc([N+](=O)[O-])c([N+](=O)[O-])c3)s2)c1`, for which the IC50 in experiment [1] is 6.7 µM; in experiment [4], > 20 µM; in experiment [6], 17.8 µM; in experiment [7], 1.3 µM. The result in experiment [2], in experiment [3] and in experiment [5] was inactive.
Consider `O=C(NCCNS(=O)(=O)c1ccc(-c2ccccc2OCc2cccc(O)c2)s1)Nc1cc(Cl)cc(Cl)c1`, for which the 50% inhibitory concentration (IC50) in experiment [1] is 2.8 µM; in experiment [4], > 50 µM; in experiment [6] it was > 20 µM; in experiment [7] it was > 50 µM. Besides, the outcome in experiment [2], in experiment [3] and in experiment [5] was inactive.
Regarding `COc1ccc(Oc2ccc(C(C)C)cc2-c2ccsc2S(=O)(=O)NCCNC(=O)Nc2cc(Cl)cc(Cl)c2)cc1OC`, the IC50 in experiment [1] is 6.5 µM; in experiment [4], 11.6 µM; in experiment [6], 11.9 µM; in experiment [7], 9 µM. Also, the outcome in experiment [2], in experiment [3] and in experiment [5] was inactive.
`O=S(=O)(NCCNC(=S)Nc1cccc(Cl)c1)c1ccc(-c2ccccc2OCc2cccc(O)c2)s1`: the IC50 in experiment [1] came out at 1.8 µM; in experiment [4], 10.7 µM; in experiment [6] it was 17.4 µM; in experiment [7], 5.8 µM. In addition, the result in experiment [2], in experiment [3] and in experiment [5] was inactive.
On to `O=[N+]([O-])c1ccc(Oc2ccccc2-c2ccc(S(=O)(=O)NCCNC(=S)Nc3cccc(Cl)c3)s2)cc1`, for which the IC50 in experiment [1] was > 50 µM; in experiment [4], 4.6 µM; in experiment [6], 4.99 µM; in experiment [7], > 50 µM. Further, the outcome in experiment [2], in experiment [3] and in experiment [5] was inactive.
For the compound `O=C(NCCNS(=O)(=O)c1ccc(-c2ccccc2OCc2ccccc2)s1)Nc1cc(C(F)(F)F)cc(C(F)(F)F)c1`, the IC50 was 11.4 µM in experiment [1], 13.5 µM in experiment [4], > 20 µM in experiment [6] and > 50 µM in experiment [7]. Also, the outcome in experiment [2], in experiment [3] and in experiment [5] was inactive.
